These results are taken from patent US11312727B1, “Macrocyclic flu endonuclease inhibitors” (Janssen BioPharma, Inc., priority 2018, dated 2022).

The nature of one data set: in vitro. Conditions: human, CC50, uninfected A549 cells, CellTiter-Glo. In general terms: In ATP-based viability assays light output follows the ATP content of the culture.
Data set [1] concerns Influenza strain A549 A/WSN/33 (H1N1). The experiment in a line: microbe, parasite or virus in culture. Type of data set: cell-based. Conditions: Influenza A virus, A549, 20 h, A549 cells, influenza A/WSN/33 (H1N1), 20 hours incubation; read-out: A549_A(H1N1) EC50.

For orientation: CC50 means the concentration that lowers cell viability or growth by half. Read a low CC50 as harm at low concentration. As a reminder, the EC50 is the concentration that produces a half-maximal response. For `O=C1c2c(O)c(=O)ccn2N2CN1CCCCOc1ccccc1C2c1ccccc1` (stereo not drawn) [Compound 8, 12-hydroxy-18-phenyl-6,7,8,9-tetrahydro-18H-10,17-methanobenzo[b]pyrido[1,2-f][1]oxa[5,6,9]triazacyclotridecine-11,13-dione], the CC50 in the data set “in vitro” is more than 2000 nM. Further, the EC50 in data set [1] was determined as 59 nM.
In the same order, the values of `O=C1c2c(O)c(=O)ccn2N2CN1C/C=C\COc1c(ccc(F)c1F)[C@@H]2c1ccccc1C1CC1` (single isomer, unassigned) [Compound 136B, (18*S,*Z)-18-(2-cyclopropylphenyl)-3,4-difluoro-12-hydroxy-6,9-dihydro-18H-10,17-methanobenzo[b]pyrido[1,2-f][1]oxa[5,6,9]triazacyclotridecine-11,13-dione] are more than 200 nM and more than 100 nM.
In the same order, the values of `O=C1c2c(O)c(=O)ccn2N2CN1C/C=C\COc1c(Cl)cccc1[C@H]2c1ccccc1` (single isomer, unassigned) [Compound 75A, (18*R,Z)-4-chloro-12-hydroxy-18-phenyl-6,9-dihydro-18H-10,17-methanobenzo[b]pyrido[1,2-f][1]oxa[5,6,9]triazacyclotridecine-11,13-dione] are more than 2000 nM and 269 nM.
Molecule `CC(C)[C@H]1/C=C/COc2cc(F)c(F)c3c2[C@@H](c2ccccc2SC3)N2CN1C(=O)c1c(O)c(=O)ccn12` (single isomer, unassigned) [Compound 169AA, (9*S,17a*S,*E)-24,25-difluoro-12-hydroxy-9-isopropyl-2,6,9,17a-tetrahydro-3,4-(epiprop[1]en[1]yl[3]ylidene)-10,17-methanobenzo[6,7]thiepino[4,5-c]pyrido[1,2-f][1]oxa[5,6,9]triazacyclotridecine-11,13-dione] gave a half-maximal cytotoxic concentration (CC50) in “in vitro” of more than 100 nM. In data set [1], the 50% effective concentration (EC50) came to 48 nM.
Consider `O=C1c2c(O)c(=O)ccn2N2CN1C1(/C=C/COc3cc(F)c(F)c4c3[C@@H]2c2ccccc2SC4)CC1` (single isomer, unassigned) [Compound 108A, (17a′*R,*E)-24′,25′-difluoro-12′-hydroxy-2′,17a′-dihydro-6′H-spiro[cyclopropane-1,9′-[3,4](epiprop[1]en[1]yl[3]ylidene)[10,17]methanobenzo[6,7]thiepino[4,5-c]pyrido[1,2-f][1]oxa[5,6,9]triazacyclotridecine]-11′,13′-dione], for which, in “in vitro”, the CC50 amounted to 22600 nM. Also, in data set [1], the EC50 is 840 nM.
In the same order, the values of `O=C1c2c(O)c(=O)ccn2N2CN1CCCCCCOc1ccccc1C2c1ccccc1` (stereo not drawn) [Compound 55, 15-hydroxy-2-phenyl-12,13,14,16-tetrahydro-11H-4-oxa-1(1,3)-pyrido[2,1-f][1,2,4]triazina-3(1,2)-benzenacyclodecaphane-14,16-dione] are more than 2000 nM and 880 nM.
In the same order, the values of `C[C@H]1/C=C/COc2ccccc2[C@@H](c2ccccc2)N2CN1C(=O)c1c(O)c(=O)ccn12` (single isomer, unassigned) [Compound 29AB, (9*S, 18*R, E)-12-hydroxy-9-methyl-18-phenyl-6,9-dihydro-18H-10,17-methanobenzo[b]pyrido[1,2-f][1]oxa[5,6,9]triazacyclotridecine-11,13-dione] are more than 200 nM and 5.7 nM.
In the same order, the values of `O=C1c2c(O)c(=O)ccn2N2CN1C/C=C\COc1ccccc1[C@H]2c1ccccc1` [Compound 5A, (18R,Z)-12-hydroxy-18-phenyl-6,9-dihydro-18H-10,17-methanobenzo[b]pyrido[1,2-f][1]oxa[5,6,9]triazacyclotridecine-11,13-dione] are more than 2000 nM and 8 nM.
As for `O=C1c2c(O)c(=O)ccn2N2CN1C/C=C\COc1ccc(F)cc1[C@@H]2c1cccc(F)c1` (single isomer, unassigned) [Compound 25B, (18*S,Z)-2-fluoro-18-(3-fluorophenyl)-12-hydroxy-6,9-dihydro-18H-10,17-methanobenzo[b]pyrido[1,2-f][1]oxa[5,6,9]triazacyclotridecine-11,13-dione], the CC50 in “in vitro” was more than 2000 nM. Besides, in data set [1], the EC50 was 11 nM.
